We go through two compounds from ChEMBL document CHEMBL3600289, “A double bond-conjugated dimethylnitrobenzene-type photolabile nitric oxide donor with improved two-photon cross section” (Bioorg Med Chem Lett, 2015).

For data set [1], the system named is HCT-116. Briefly: Induction of nitric oxide release in human HCT116 cells at 25 uM preincubated for 1 hr followed by irradiation with 950 nm pulse laser for 1 sec by confocal microscopic analysis. The data set is classed as functional, cell-based.
Data set [2] in a line: Induction of nitric oxide release in water/DMSO mixture irradiated with 100W Hg lamp at 330 to 380 nm at 1 mM by […] complex-based ESR spin trapping method. The data set is classed as physicochemical. The note with it: buffer, 0.38 µM.
The subject of data set [3] is HCT-116. The experiment in a line: Induction of nitric oxide release in human HCT116 cells at 25 uM incubated for 1 hr by confocal microscopic analysis in absence of irradiation. The data set is classed as functional, cell-based.
Data set [4] can be described thus: Induction of nitric oxide release in water/DMSO mixture irradiated with 100W Hg lamp at 450 to 480 nm at 1 mM by […] complex-based ESR spin trapping method. The class given is physicochemical. The note with it: buffer, 0.48 µM.
Data set [5] in a line: Induction of nitric oxide release in water/DMSO mixture irradiated with 100W Hg lamp at 450 to 480 nm by […] complex-based ESR spin trapping method. The data set is classed as physicochemical. As to conditions: buffer, 0.48 µM.

SMILES strings stand for the structures. Calls of active or inactive are those of the source. No cut-off for these calls is given here.

For `Cc1cc(/C=C/c2ccc(/C=C/c3ccc(-c4c5ccc(=O)cc-5oc5cc(O)ccc45)c(C(=O)O)c3)cc2)cc(C)c1[N+](=O)[O-]`, the outcome in the data set with HCT-116 [1] was Active. Further, the outcome in data set [2] and in data set [4] was Active. Besides, the outcome in the data set on HCT-116 [3] was inactive.

As to `Cc1cc(/C=C/c2ccc(C(=O)Nc3ccc(-c4c5ccc(=O)cc-5oc5cc(O)ccc45)c(C(=O)O)c3)cc2)cc(C)c1[N+](=O)[O-]`, the Activity result in data set [5] is listed as “Not Active”.
